Test results taken from US11426367B2, “Methods of treating substance abuse” (Perception Neuroscience, Inc., priority 2018, dated 2022).

Key:
[1] = test system: cerebral metabolic rates of glucose; settings: healthy volunteers, Non Patent Literature 13, cited from earlier work; for cerebral metabolic rates of glucose (CMRglu), PET: S(+)-ketamine i.v. 15 mg for 5 min then 0.014 to 0.02 mg/kg/min for 53 min, R(−)-ketamine equimolar doses
[2] = test system: medial forebrain bundle self-stimulation in rats; test: Intracranial self-stimulation (ICSS), frequency-rate procedure; settings: for ICSS, anhedonia: doses 10, 30 mg/kg, Present study; for ICSS frequency-rate response curve: rats, 3, 10 or 30 mg/kg i.p. 2 hours prior to test session, vs saline vehicle
[3] = test system: tolerance to effects of ethanol; test: Tolerance to ethanol, grip strength; settings: for tolerance to the effect of ethanol on grip strength/body weight (motor-impairment): rats, 3 mg/kg given with ethanol (2.3 and 1.7) on day 1, tested day 2, 30 min post ethanol, 3 mg/kg
[4] = test system: morphine withdrawal signs in rats; test: Naloxone-precipitated withdrawal from subchronic morphine; type: in vivo; settings: 10 and 20 mg/kg i.p. before naloxone 1 mg/kg SC, morphine 10 mg/kg SC b.i.d.
Protocol: Forty (40) male Wistar rats served as test subjects in this study. Animals were pair housed with unrestricted access to rodent chow and water (SOP ROD.03.01, SOP ROD.04.01, SOP ROD.18). […] All experimental activity occurring during the animals' light cycle. All animal use procedures were performed in accordance with the principles of the Canadian Council on Animal Care (CCAC).
Forty (40) male Wistar rats were assigned to 5 groups of N=8 rats per group. Group A was dosed with saline vehicle (Sal; subcutaneous (SC) route) twice daily (approx. 08:00±1 h and 18:00±1 h) for 12 days. […] This treatment regimen was designed to induce opioid dependence (Erami et al., 2012). […] On days 9 and 12, rats were tested for naloxone precipitated withdrawal. According to a cross-over design (see Table 4: Treatment Groups), all rats in each group received either acute saline, or naloxone hydrochloride (1 mg/kg; dose volume 2 ml/kg) injection by the SC route, 5 minutes prior to behavioral testing. […] Lofexidine doses are based on literature values (e.g. Shearman et al., 1979). Immediately after vehicle or naloxone injection, rats were transferred to activity chambers for 30 minutes where the animals were visually assessed for somatic signs associated with opioid withdrawal (e.g. writhes, chews, ptosis, WDS, shakes, tremor, penile grooming, body weight change; see Higgins and Sellers, 1994). Simultaneously, the activity pattern (distance travelled, rearing) of each rat was automatically recorded.
Locomotor activity. Spontaneous activity in the rats was measured with the automated Med Associates activity test chamber for 30 minutes with 10-minute time bins. The tracking arena was 17″W×17″L×12″H, sensor bars are secured 1″ above the floor to track distance travelled, and a second set of sensor bars are placed ˜5″ above the floor to measure vertical movement and rearing activity. The parameters set on the tracking software were as follows: resolution—50 milliseconds (ms), box size—4 beams, resting delay—500 ms, and ambulatory trigger—2 (SOP ROD.25). […]

Chronic pain patients = settings: chronic pain patients after i.v. R,S-ketamine; Persson et al., 1998; cited from earlier work
patients with depression = settings: cited from earlier work
[5] = 3 mg/kg i.p. 2 hours prior to test session, 10 rats
[6] = 10 mg/kg i.p. 2 hours prior to test session, 10 rats
[7] = 30 mg/kg i.p. 2 hours prior to test session, 10 rats
[8] = baseline session before dosing on the 3 mg/kg test day, 10 rats
[9] = baseline session before dosing on the 10 mg/kg test day, 10 rats
[10] = baseline session before dosing on the 30 mg/kg test day, 10 rats

Structure (SMILES) | cerebral metabolic rates of glucose (CMRglu), PET [1] | M50, Test, mean log M50 frequency (SEM) [2, 5] | Threshold (T0), Test, mean log T0 frequency (SEM) [2, 5] | Threshold (T0), Test, mean log T0 frequency (SEM) [2, 6] | M50, Test, mean log M50 frequency (SEM) [2, 7] | Threshold (T0), Test, mean log T0 frequency (SEM) [2, 7] | M50, Baseline, mean log M50 frequency (SEM) [2, 8] | Threshold (T0), Baseline, mean log T0 frequency (SEM) [2, 8] | Threshold (T0), Baseline, mean log T0 frequency (SEM) [2, 9] | M50, Baseline, mean log M50 frequency (SEM) [2, 10] | Threshold (T0), Baseline, mean log T0 frequency (SEM) [2, 10] | ICSS, anhedonia [2] | ICSS frequency-rate response curve [2] | also measured
CN[C@@]1(c2ccccc2Cl)CCCCC1=O.Cl [R(−)-ketamine] | tended to decrease CMRglu | 1.98 (0.01) log/Hz | 1.88 (0.02) log/Hz | 1.93 (0.03) log/Hz | 1.99 (0.02) log/Hz | 1.90 (0.02) log/Hz | 2.00 (0.02) log/Hz | 1.91 (0.02) log/Hz | 1.91 (0.03) log/Hz | 1.98 (0.02) log/Hz | 1.89 (0.02) log/Hz | 10, 30 - no anhedonia | did not significantly alter behavior of rats | psychotic symptoms ([1]; doses equimolar to psychotomimetic doses of S(+)-ketamine): did not produce psychotic symptoms; M50, Test, mean log M50 frequency (SEM) [2, 6]: 2.02 (0.02) log/Hz; M50, Baseline, mean log M50 frequency (SEM) [2, 9]: 2.00 (0.02) log/Hz; Ethanol Tolerance, dose blocking development of tolerance ([3]; grip strength, Present study): 3 - grip strength mg/kg; tolerance to the effect of ethanol on grip strength/body weight (motor-impairment) [3]: tolerance was significantly diminished; tolerance to the effect of ethanol on grip strength/body weight (motor-impairment) ([3]; listed as R-ketamine): blocked; overall morphine withdrawal scores (naloxone-precipitated withdrawal signs) [4]: dose-dependently attenuated overall morphine withdrawal scores; overall morphine withdrawal scores (naloxone-precipitated withdrawal signs) ([4]; listed as R-ketamine): significantly attenuated the naloxone-induced withdrawal signs
CN[C@]1(c2ccccc2Cl)CCCCC1=O [S(+)-ketamine] | increased cerebral metabolic rates of glucose | 1.98 log/Hz | 1.88 log/Hz | 1.90 log/Hz | 2.07 log/Hz | 1.95 log/Hz | 1.97 (0.02) log/Hz | 1.86 (0.02) log/Hz | 1.87 (0.02) log/Hz | 1.98 (0.01) log/Hz | 1.87 (0.02) log/Hz | 10, 30 anhedonia | significant downward shift in the stimulation-frequency curve | Plasma levels of S analyzed (Chronic pain patients): Plasma levels of S analyzed (50-400 ng/ml); M50, Test, mean log M50 frequency ([2]; 15 mg/kg (so in the source) i.p., 10 rats): 2.00 log/Hz; M50, Baseline, mean log M50 frequency (SEM) ([2]; baseline session before dosing on the 15 mg/kg (so in the source) test day, 10 rats): 1.97 (0.01) log/Hz; antidepressant effects compared with RS(+/−)-ketamine (0.5 mg/kg, i.v.) (patients with depression; 0.25 mg/kg i.v., treatment-resistant patients with MDD, case report, Non Patent Literature 14): weaker; effective oral doses in patients with depression (patients with depression; oral, Non Patent Literatures 15 and 16): 1.25 mg/kg
